Measurements published in PubChem BioAssay AID2060626 (Molecular Pharmacology Branch, DTP, NCI, 2025).
“And” between values parts separate entries of the source, which are not always exact repeats. Equal entries are not always repeated.

System: 168753-222-R-J1-PDC complex spheroid viability
Experiment: Anticancer human tumor 168753-222-R-J1-PDC patient-derived bladder carcinoma cell line growth inhibition [CLK]
Details: for viability, T/C: stronger effect = lower value
Summary of the method: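 Patient-derived tumor cells grown as complex spheroids with HUVEC endothelial cells and mesenchymal stem cells, treated with drug combinations. Concentrations descend in half-log steps from near clinical Cmax, or from 10 microM if Cmax unknown.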

[1] = curve of first compound, second compound 0.0316 µM
[2] = curve of first compound, second compound 0.1 µM
[3] = curve of first compound, second compound 0.316 µM
[4] = curve of first compound, second compound 1 µM
[5] = curve of first compound, second compound 3.16 µM
[6] = curve of first compound, second compound 10 µM
[7] = second compound 0.0316 µM, first compound 0.0316 µM
[8] = second compound 0.0316 µM, first compound 0.1 µM
[9] = second compound 0.0316 µM, first compound 0.316 µM
[10] = second compound 0.0316 µM, first compound 1 µM
[11] = second compound 0.0316 µM, first compound 3.16 µM
[12] = second compound 0.0316 µM, first compound 10 µM
[13] = second compound 0.1 µM, first compound 0.0316 µM
[14] = second compound 0.1 µM, first compound 0.1 µM
[15] = second compound 0.1 µM, first compound 0.316 µM
[16] = second compound 0.1 µM, first compound 1 µM
[17] = second compound 0.1 µM, first compound 3.16 µM
[18] = second compound 0.1 µM, first compound 10 µM
[19] = second compound 0.316 µM, first compound 0.0316 µM
[20] = second compound 0.316 µM, first compound 0.1 µM
[21] = second compound 0.316 µM, first compound 0.316 µM
[22] = second compound 0.316 µM, first compound 1 µM
[23] = second compound 0.316 µM, first compound 3.16 µM
[24] = second compound 0.316 µM, first compound 10 µM
[25] = second compound 1 µM, first compound 0.0316 µM
[26] = second compound 1 µM, first compound 0.1 µM
[27] = second compound 1 µM, first compound 0.316 µM
[28] = second compound 1 µM, first compound 1 µM
[29] = second compound 1 µM, first compound 3.16 µM
[30] = second compound 1 µM, first compound 10 µM
[31] = second compound 3.16 µM, first compound 0.0316 µM
[32] = second compound 3.16 µM, first compound 0.1 µM
[33] = second compound 3.16 µM, first compound 0.316 µM
[34] = second compound 3.16 µM, first compound 1 µM
[35] = second compound 3.16 µM, first compound 3.16 µM
[36] = second compound 3.16 µM, first compound 10 µM
[37] = second compound 10 µM, first compound 0.0316 µM
[38] = second compound 10 µM, first compound 0.1 µM
[39] = second compound 10 µM, first compound 0.316 µM
[40] = second compound 10 µM, first compound 1 µM
[41] = second compound 10 µM, first compound 3.16 µM
[42] = second compound 10 µM, first compound 10 µM
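Further: viability measured after seven days of drug exposure.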
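Wherever viability, T/C is given: luminescence signal used as surrogate for viable cell amount; 100% = DMSO vehicle control wells.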

For `C#Cc1c(F)ccc2cc(O)cc(-c3ncc4c(N5CC6CCC(C5)N6)nc(OCC56CCCN5CC(F)C6)nc4c3F)c12` (stereo not drawn) + CNC(=O)c1ccc(Nc2nc(OC3CCCC3)c3c(-c4ccc5nc(C)oc5c4)c[nH]c3n2)c(OC)c1, the IC50 [1] was over 10000 nM, the IC50 [2] was over 10000 nM and the IC50 [3] was 5140 nM. The IC50 [4] was under 31.6 nM, the IC50 [5] was under 31.6 nM and the IC50 [6] was under 31.6 nM. The viability, T/C [7] was 106%, the viability, T/C [8] was 99.4% and the viability, T/C [9] was 107%. It also gave a viability, T/C [10] of 99.2%, a viability, T/C [11] of 105% and a viability, T/C [12] of 73.1%. It also gave a viability, T/C [13] of 99.1%, a viability, T/C [14] of 103% and a viability, T/C [15] of 101%. For the same molecule, the viability, T/C [16] was 101%, the viability, T/C [17] was 90.1% and the viability, T/C [18] was 73%. The viability, T/C [19] was 86%, the viability, T/C [20] was 74.3% and the viability, T/C [21] was 78.5%. It also gave a viability, T/C [22] of 78.2%, a viability, T/C [23] of 67.9% and a viability, T/C [24] of 25.6%. For the same molecule, the viability, T/C [25] was 42.3%, the viability, T/C [26] was 39.9% and the viability, T/C [27] was 36.7%. The viability, T/C [28] was 22.7%, the viability, T/C [29] was 30.4% and the viability, T/C [30] was 16.9%. The viability, T/C [31] was 28.7%, the viability, T/C [32] was 21.7% and the viability, T/C [33] was 20%. It also gave a viability, T/C [34] of 17.7%, a viability, T/C [35] of 18.4% and a viability, T/C [36] of 16.2%. It also gave a viability, T/C [37] of 17.1%, a viability, T/C [38] of 21.5% and a viability, T/C [39] of 18.6%. It also gave a viability, T/C [40] of 14.8%, a viability, T/C [41] of 11.7% and a viability, T/C [42] of 11.3%.

In the case of `CC(Nc1ccc2c(c1)OCCn1cc(N3C(=O)OCC3C(F)F)nc1-2)C(N)=O` (stereo not drawn), the viability, T/C (compound 0.0316 µM) is reported as 86.9% and 78.6%, the viability, T/C (compound 0.1 µM) is reported as 45.8% and 69.2% and the viability, T/C (compound 0.316 µM) is reported as 20.7% and 22.8%. The viability, T/C (compound 1 µM) was 13.3% and 18.8%, the viability, T/C (compound 3.16 µM) was 10.3% and 13.1% and the viability, T/C (compound 10 µM) was 11% and 14.8%. For the same molecule, the IC50 (curve of compound) was 88.9 nM and 161 nM.

`CC(C)CC(NC(=O)C(Cc1ccccc1)NC(=O)c1cnccn1)B(O)O` (stereo not drawn) + CN1CCN(c2cc(C(=O)Nc3cc4cc(-c5cnn(C)c5)ccc4cn3)ccn2)CC1 was tested, and the IC50 [1] was 2.02 nM, the IC50 [2] was 1.26 nM and the IC50 [3] was under 0.949 nM. For the same molecule, the IC50 [4] was under 0.949 nM, the IC50 [5] was under 0.949 nM and the IC50 [6] was under 0.949 nM. It also gave a viability, T/C (second compound 0.0316 µM, first compound 0.000949 µM) of 110%, a viability, T/C (second compound 0.0316 µM, first compound 0.003 µM) of 18.9% and a viability, T/C (second compound 0.0316 µM, first compound 0.00949 µM) of 0.44%. For the same molecule, the viability, T/C (second compound 0.0316 µM, first compound 0.03 µM) was 0.32%, the viability, T/C (second compound 0.0316 µM, first compound 0.0949 µM) was 0.25% and the viability, T/C (second compound 0.0316 µM, first compound 0.3 µM) was 1.03%. It also gave a viability, T/C (second compound 0.1 µM, first compound 0.000949 µM) of 59.4%, a viability, T/C (second compound 0.1 µM, first compound 0.003 µM) of 20.9% and a viability, T/C (second compound 0.1 µM, first compound 0.00949 µM) of 0.36%. For the same molecule, the viability, T/C (second compound 0.1 µM, first compound 0.03 µM) was 0.27%, the viability, T/C (second compound 0.1 µM, first compound 0.0949 µM) was 0.22% and the viability, T/C (second compound 0.1 µM, first compound 0.3 µM) was 0.23%. For the same molecule, the viability, T/C (second compound 0.316 µM, first compound 0.000949 µM) was 11.4%, the viability, T/C (second compound 0.316 µM, first compound 0.003 µM) was 11.6% and the viability, T/C (second compound 0.316 µM, first compound 0.00949 µM) was 0.29%. The viability, T/C (second compound 0.316 µM, first compound 0.03 µM) was 0.17%, the viability, T/C (second compound 0.316 µM, first compound 0.0949 µM) was 0.2% and the viability, T/C (second compound 0.316 µM, first compound 0.3 µM) was 0.16%. It also gave a viability, T/C (second compound 1 µM, first compound 0.000949 µM) of 0.26%, a viability, T/C (second compound 1 µM, first compound 0.003 µM) of 0.22% and a viability, T/C (second compound 1 µM, first compound 0.00949 µM) of 0.57%. The viability, T/C (second compound 1 µM, first compound 0.03 µM) was 0.12%, the viability, T/C (second compound 1 µM, first compound 0.0949 µM) was 0.15% and the viability, T/C (second compound 1 µM, first compound 0.3 µM) was 0.15%. For the same molecule, the viability, T/C (second compound 3.16 µM, first compound 0.000949 µM) was 1.04%, the viability, T/C (second compound 3.16 µM, first compound 0.003 µM) was 0.22% and the viability, T/C (second compound 3.16 µM, first compound 0.00949 µM) was 0.34%. For the same molecule, the viability, T/C (second compound 3.16 µM, first compound 0.03 µM) was 0.09%, the viability, T/C (second compound 3.16 µM, first compound 0.0949 µM) was 1.55% and the viability, T/C (second compound 3.16 µM, first compound 0.3 µM) was 0.25%. It also gave a viability, T/C (second compound 10 µM, first compound 0.000949 µM) of 0.63%, a viability, T/C (second compound 10 µM, first compound 0.003 µM) of 0.26% and a viability, T/C (second compound 10 µM, first compound 0.00949 µM) of 0.23%. It also gave a viability, T/C (second compound 10 µM, first compound 0.03 µM) of 0.18%, a viability, T/C (second compound 10 µM, first compound 0.0949 µM) of 1.16% and a viability, T/C (second compound 10 µM, first compound 0.3 µM) of 1.04%.

With `CC(=O)O[C@H]1C(=O)[C@@]2(C)[C@H]([C@H](OC(=O)c3ccccc3)[C@]3(O)C[C@H](OC(=O)[C@H](O)[C@@H](NC(=O)c4ccccc4)c4ccccc4)C(C)=C1C3(C)C)[C@]1(OC(C)=O)CO[C@@H]1C[C@@H]2O` + CNC(=O)c1ccc(Nc2nc(OC3CCCC3)c3c(-c4ccc5nc(C)oc5c4)c[nH]c3n2)c(OC)c1 the IC50 [1] was 130 nM, the IC50 [2] was over 10000 nM and the IC50 [3] was over 10000 nM. The IC50 [4] was under 31.6 nM, the IC50 [5] was under 31.6 nM and the IC50 [6] was under 31.6 nM. The viability, T/C [7] was 74.5%, the viability, T/C [8] was 39.9% and the viability, T/C [9] was 30.9%. For the same molecule, the viability, T/C [10] was 33.1%, the viability, T/C [11] was 53.4% and the viability, T/C [12] was 53.2%. It also gave a viability, T/C [13] of 80.8%, a viability, T/C [14] of 64.2% and a viability, T/C [15] of 64.6%. For the same molecule, the viability, T/C [16] was 67.7%, the viability, T/C [17] was 86.6% and the viability, T/C [18] was 88.2%. For the same molecule, the viability, T/C [19] was 79.1%, the viability, T/C [20] was 80.5% and the viability, T/C [21] was 77.5%. It also gave a viability, T/C [22] of 79.9%, a viability, T/C [23] of 85% and a viability, T/C [24] of 93.9%. For the same molecule, the viability, T/C [25] was 52.3%, the viability, T/C [26] was 34.7% and the viability, T/C [27] was 41.2%. It also gave a viability, T/C [28] of 29.4%, a viability, T/C [29] of 52.9% and a viability, T/C [30] of 62.7%. The viability, T/C [31] was 20.9%, the viability, T/C [32] was 22.2% and the viability, T/C [33] was 26.7%. It also gave a viability, T/C [34] of 31.1%, a viability, T/C [35] of 29.9% and a viability, T/C [36] of 36.4%. The viability, T/C [37] was 20.9%, the viability, T/C [38] was 18.6% and the viability, T/C [39] was 23.8%. The viability, T/C [40] was 29.1%, the viability, T/C [41] was 35.4% and the viability, T/C [42] was 31.4%.
